Measured values taken from PMC6265301, “Engineering Saccharomyces cerevisiae for co-utilization of D-galacturonic acid and D-glucose from citrus peel waste” (Nature Communications, 2018).

Experiments:
GAAC = biological target: T1, GAAC (Aspergillus niger, UniProt A8DRH7); experiment: aldolase activity in yeast lysate; assay type: biochemical
T1 construct: codon-optimized, expressed in S. cerevisiae BY4741, lysate
T1 sequence (A8DRH7 1-335): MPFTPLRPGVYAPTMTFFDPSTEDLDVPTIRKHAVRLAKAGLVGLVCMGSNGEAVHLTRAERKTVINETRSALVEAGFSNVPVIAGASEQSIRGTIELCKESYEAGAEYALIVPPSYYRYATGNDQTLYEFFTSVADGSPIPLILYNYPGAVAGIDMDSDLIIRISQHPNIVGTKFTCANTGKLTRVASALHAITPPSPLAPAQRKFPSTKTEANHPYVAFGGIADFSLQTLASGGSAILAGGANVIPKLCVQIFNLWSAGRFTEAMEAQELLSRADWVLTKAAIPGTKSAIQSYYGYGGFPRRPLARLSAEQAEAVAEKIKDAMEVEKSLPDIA

[1] = biological target: T2, uronate dehydrogenase (UDH) (Pseudomonas syringae group genomosp. 3, UniProt Q888H1); experiment: conversion to meso-galactaric acid by UDH-expressing yeast, HPLC; assay type: cell-based; conditions: orange peel hydrolysate, GatA co-expressed
T2 construct: genomically integrated, expressed in S. cerevisiae with GatA
T2 sequence (Q888H1 1-275): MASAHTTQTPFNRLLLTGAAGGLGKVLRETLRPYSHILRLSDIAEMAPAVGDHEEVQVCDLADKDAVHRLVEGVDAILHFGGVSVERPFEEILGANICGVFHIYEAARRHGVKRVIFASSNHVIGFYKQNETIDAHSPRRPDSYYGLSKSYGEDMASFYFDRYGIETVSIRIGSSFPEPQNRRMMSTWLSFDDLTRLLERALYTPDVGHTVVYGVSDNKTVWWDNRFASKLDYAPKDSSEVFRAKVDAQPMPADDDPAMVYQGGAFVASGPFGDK

GAAA = biological target: T3, GAAA (Aspergillus niger, UniProt A8DRH9); experiment: reductase activity in yeast lysate; assay type: biochemical
T3 construct: codon-optimized, expressed in S. cerevisiae BY4741, lysate
T3 sequence (A8DRH9 1-412): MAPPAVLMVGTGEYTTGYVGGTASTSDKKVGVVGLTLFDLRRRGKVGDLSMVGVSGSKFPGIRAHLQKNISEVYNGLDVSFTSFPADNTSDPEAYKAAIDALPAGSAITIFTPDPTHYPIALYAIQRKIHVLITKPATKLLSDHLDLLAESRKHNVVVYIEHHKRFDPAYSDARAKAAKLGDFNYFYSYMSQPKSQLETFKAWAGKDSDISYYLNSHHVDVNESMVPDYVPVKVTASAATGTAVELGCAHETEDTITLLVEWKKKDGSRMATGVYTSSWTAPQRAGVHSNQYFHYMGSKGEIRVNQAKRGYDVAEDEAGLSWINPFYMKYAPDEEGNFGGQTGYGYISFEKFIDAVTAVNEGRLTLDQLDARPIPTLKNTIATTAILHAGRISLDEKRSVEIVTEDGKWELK

GAR1 = biological target: T4, GAR1 (Trichoderma reesei, UniProt Q3ZFI7); experiment: reductase activity in yeast lysate; assay type: biochemical
T4 construct: codon-optimized, expressed in S. cerevisiae BY4741, lysate
T4 sequence (Q3ZFI7 1-309): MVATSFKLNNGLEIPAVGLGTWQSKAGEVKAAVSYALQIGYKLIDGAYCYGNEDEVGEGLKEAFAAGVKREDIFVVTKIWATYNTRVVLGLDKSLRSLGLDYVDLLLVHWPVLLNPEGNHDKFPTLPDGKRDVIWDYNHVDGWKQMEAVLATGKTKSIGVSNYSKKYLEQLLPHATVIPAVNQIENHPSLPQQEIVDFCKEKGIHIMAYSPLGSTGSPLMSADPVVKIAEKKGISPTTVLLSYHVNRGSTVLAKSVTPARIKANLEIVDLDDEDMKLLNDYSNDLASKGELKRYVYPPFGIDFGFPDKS

Compound	aldolase activity in yeast lysate (GAAC)	conversion to meso-galactaric acid by UDH-expressing yeast, HPLC [1]	reductase activity in yeast lysate (GAAA)	reductase activity in yeast lysate (GAR1)
O=C(O)C(=O)C[C@H](O)[C@@H](O)CO [2-keto-3-deoxy-L-galactonate]	2-keto-3-deoxy-L-galactonate aldolase from Aspergillus niger (GAAC)			
O=C(O)[C@H]1OC(O)[C@H](O)[C@@H](O)[C@H]1O (stereo partly drawn) [D-galUA]		conversion of D-galUA to meso-galactaric acid was observed in the UDH and GatA co-expression strain	lower specific activities measured for GAAA compared to GAR1 in cell lysate	D-galacturonate reductase from Trichoderma reesei (GAR1)
